Test results: patent US20070299040A1, “Composition for Preventing a Cold” (BIOTECH INSTITUTE FOR INTERNATIONAL INNOVATION, INC., priority 2004, published 2007)
Where “and” joins values, the source holds several entries; their conditions need not be identical. Identical values can stand only once.

Legend:
Type in all cases: in vivo, human
cold = assay: Analysis of cold cases, composition of Example 8 vs vitamin C and placebo (Experimental Example 3)
Text: The present experiment example analyzed cold cases in the experiment group who took the composition of Example 8, and the control groups I and II who took vitamin C and placebo (wheat flour) respectively, throughout 40 months from 1999 to 2003. The intake is the same as 1 g after meal. Here, ‘cold’ is defined to show high fever or slight fever, sore throat, dry cough, headache, myalgia, and chill.
As a result of the above experiment, the average of cold case a year per person in the experiment group who took the present composition, the control group I who took vitamin C, and the control group II who took placebo was 0, 1.5, and 5.6, respectively, all of which are statistically significant difference under 0.05% of significance probability. In sum, the composition of the present invention accomplished 100% of cold prevention effect.

IL-2 = assay: Cytokine in serum by ELISA (Experimental Example 4); conditions: samples from persons after 40 months of intake; 10 samples
Method: (§1) After such cultivating, the plates were washed, biotynilated secondary antibody was filled in each plate by […], and streptavidin ALP was added thereto, which was cultivated at 37° C. for 30 minutes. After washing the plates again, alkaline phosphatase PNPP was added thereto, and the plates were cultivated for 30 minutes and measured with ELISA reader at 405 nm.

INF-γ = assay: as above; conditions: samples from persons after 40 months of intake; 10 samples
Method: as §1

IL-10 = assay: as above; conditions: samples from persons after 40 months of intake
Method: as §1

IL-4 = assay: as above; conditions: samples from persons after 40 months of intake; 10 samples
Method: as §1

IL-12 = assay: as above; conditions: samples from persons after 40 months of intake; 10 samples
Method: as §1

O=C1O[C@H]([C@@H](O)CO)C(O)=C1O [Vitamin C, ascorbic acid]
average of cold case a year per person (cold; 40 months, 1 g after meal): 1.5
cold prevention effect (in words) (cold; group administrating vitamin C only): some cold prevention effect
Frequency of cold in the control group taking vitamin C (cold; per person (one line per subject), 1 g after meal, 40 months 1999-2003): 4 (7×) and 5 (5×) and 7 and 6 (2×)
Cytokine in serum IL-2 (IL-2): 51 ± 19 pg/mL
Cytokine in serum INF-γ (INF-γ): 68 ± 12 pg/mL
Cytokine in serum IL-10 (IL-10): 10 ± 8 pg/mL
Cytokine in serum IL-4 (IL-4): 0.14 ± 0.03 pg/mL
Cytokine in serum IL-12 (IL-12): 20 ± 7 pg/mL
